From paper PMC3201017, “Modification of the loops in the ligand-binding site turns avidin into a steroid-binding protein” (BMC Biotechnology, 2011)
Positions count from the first letter of the chain named. Structures can show the parent of a compound that is named as a salt.

Experiments:
[1] = biological target: T1, sbAvd-2 (steroid-binding avidin mutant) (Gallus gallus, UniProt P02701, D37R/L38M/G39N/S40H/T59A/A60T/T62N); experiment: SPR competition on testosterone-BSA chip, […] inhibitor
T1 construct: gene AVD; full avidin core, homotetramer, produced in E. coli

[2] = biological target: T2, sbAvd-1 (steroid-binding avidin mutant) (Gallus gallus, UniProt P02701, D37R/L38M/G39N/S40H); experiment: as above
T2 construct: gene AVD; full avidin core, homotetramer, produced in E. coli

[3] = biological target: T1, sbAvd-2 (steroid-binding avidin mutant); experiment: microplate binding to immobilized HSA-conjugated progesterone
[4] = biological target: T2, sbAvd-1 (steroid-binding avidin mutant); experiment: as above
[5] = biological target: the molecule itself; experiment: SEC; FPLC gel-filtration, Superdex 200 10/300 GL, calibrated with a molecular-mass standard; 20 mM sodium phosphate pH 7.4, 1 M NaCl, 20 mM imidazole; 90-193 μg protein in 500 μl

T1 sequence (P02701 25-152 D37R/L38M/G39N/S40H/T59A/A60T/T62N): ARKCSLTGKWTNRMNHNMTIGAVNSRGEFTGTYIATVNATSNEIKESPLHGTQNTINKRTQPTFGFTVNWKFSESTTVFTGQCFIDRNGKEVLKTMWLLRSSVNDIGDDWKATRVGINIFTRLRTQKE

For `C[C@]12CC[C@H](OS(=O)(=O)O)CC1=CC[C@@H]1[C@@H]2CC[C@]2(C)C(=O)CC[C@@H]12` [DHEAS, dehydroepiandrosterone sulfate], the “SPR competition on testosterone-BSA chip, 50 μM inhibitor” value [1] was “The binding of sbAvd-2 to testosterone was found to be most efficiently inhibited by testosterone and DHEAS” and the “SPR competition on testosterone-BSA chip, 50 μM inhibitor” value [2] was “SbAvd-1 was found to be cross-reactive with androgens highly similar to testosterone (DHEAS and androstenedione)”.

`CC(=O)[C@H]1CC[C@H]2[C@@H]3CCC4=CC(=O)CC[C@]4(C)[C@H]3CC[C@]12C` [PRO, progesterone] was tested, and the “microplate binding to immobilized HSA-conjugated progesterone” value [3] was “these modified Avds showed clear binding to testosterone and progesterone” and the “microplate binding to immobilized HSA-conjugated progesterone” value [4] was “sbAvd-1 also binds other steroid hormones, such as progesterone and DHEAS”.

B1: steroid-binding avidin mutant sbAvd-1 (designed binder)
chain: ARKCSLTGKWTNRMNHNMTIGAVNSRGEFTGTYITAVTATSNEIKESPLHGTQNTINKRTQPTFGFTVNWKFSESTTVFTGQCFIDRNGKEVLKTMWLLRSSVNDIGDDWKATRVGINIFTRLRTQKE
notes: chicken avidin (Avd) with the loop between beta-strands 1 and 2 (N12, D13, L14, G15, S16) changed to N12, R13, M14, N15, H16; selected by phage display from the Avd L1,2 library; source: E. coli BL21-AI, pET101/D, secreted with the OmpA signal of Bordetella avium, purified (Ni-NTA)
In the case of B1, the “stoichiometry N” value [5] is reported as 4.

B2: steroid-binding avidin mutant sbAvd-2 (designed binder)
chain: B1 chain with T35A, A36T, T38N
notes: selected by phage display from the sbAvd-1 L3,4 library; source: E. coli BL21-AI, pET101/D, secreted with the OmpA signal of Bordetella avium, purified (Ni-NTA)
B2 was tested, and the “stoichiometry N” value [5] was 4.
